From US8835605B2, “Uses of cancer-targeting peptides in cancer diagnosis” (Academia Sinica, priority 2009, dated 2014)

Legend:
[1] = tested on: BT483 breast cancer xenografts; assay: In vivo binding (homing) of test phages to breast cancer xenografts, phage recovery from tissues; set-up: species or system SCID mice; conditions: heart, lung; for recovery rates of phage from tumor tissues compared with normal organs: 10^9 pfu i.v., tumor vs brain, FIG. 1
Method: SCID mice were injected subcutaneously (s.c.) in the dorsolateral flank with 1×10^7 BT483 cells to induce breast cancer xenografts. The mice bearing xenograft tumors at a size of around 300 mm^3 were administered intravenously (i.v.) with one of the five test phages mentioned in Example 1 above (10^9 pfu) or a control phage. After perfusion, xenograft tumors and organs (i.e., brain, heart, and lung) were removed from each mouse and homogenized. The phages bound to each tissue sample were eluted, recovered using ER2738 bacterial cells as the host, and titered on IPTG/X-Gal agar plates, following the methods described in Lee et al., Cancer Res. 67:10958-10965 (2007) and Lo et al., Mol. Cancer. Ther 7:579-589 (2008).

[2] = tested on: breast cancer tissue samples (mammary infiltrating ducal carcinoma); assay: Immunostaining of patient breast cancer biopsy samples with phage; set-up: species or system human; conditions: biopsy samples from twenty patients; anti-M13 immunostaining
Method: (§1) Fresh breast cancer tissue samples were obtained from twenty patients having mammary infiltrating ducal carcinoma. Each of the tissue samples was sliced to 4 μm and fixed in 1% paraformaldehyde. The sliced tissue samples were then incubated with PC90 or a control phage. After being washed by PBS containing […] (PBST0.1), the samples were incubated with an anti-M13 mouse mAb (Amersham Biosciences, Piscataway, N.J., USA) for 1 hour at room temperature, washed again with PBST0.1, and the immunoreactivity of each sample was determined using a biotin-free super sensitive polymer-HRP detection system (Biogenex, San Ramon, Calif., USA), following the procedures described in Lee et al. (2004) and Lo et al. The slides, to which the tissue samples were attached, were counterstained with hematoxylin, mounted with Aquatex (Merck, Dannstadt, Germany), and examined by light microscopy. The percentage of the positively stained cells was determined following a method described in Hall et al., J. Pathol. 172:1-4 (1994).

[3] = tested on: breast tumor xenografts (PC90 binding); assay: In vivo competition: peptide co-injected with PC90, immunostaining of tumor tissues; set-up: species or system mice; conditions: 100 μg peptide co-injected with PC90
Method: SP90 was co-administered to test its ability of blocking PC90 from binding to the tumor tissues. Briefly, 100 μg SP90 or the control peptides described above were co-injected with PC90 to mice bearing breast tumor xenografts. The normal organs and tumor tissues were removed and fixed in Bouin's solution (Sigma, Mo., USA). After fixation, the samples were embedded in paraffin blocks, sliced to sections, and the sections were deparaffinized, rehydrated, and subjected to immunostaining using the mouse anti-M13 mAb described in Example 1 above.

[4] = tested on: cancer cells in the tissue samples (PC90 binding); assay: Peptide competition assay on cancer tissue samples; set-up: species or system human; conditions: peptide 100 ng/ml with PC90 10^9 pfu
Method: as §1
The cancer targeting activity of PC90 was confirmed by a peptide competition assay, in which the cancer tissue samples were incubated with (1) the synthetic peptide (100 ng/ml) SMDPFLFQLLQL (SEQ ID NO:5) (SP90) and PC90 (10^9 pfu) or (2) the control peptide (100 ng/ml) RLLDTNRPLLPY (SEQ ID NO:6; see Lee et al., Cancer Res. 64:8002-8008, 2004) and PC90. […]

QLEFYTQLAHLI (SEQ ID NO: 4) [PC82]
recovery rates of phage from tumor tissues compared with normal organs [1]: much higher

QNIYAGVPMISF (SEQ ID NO: 1) [PC34]
recovery rates of phage from tumor tissues compared with normal organs [1]: much higher

SMDPFLFQLLQL (SEQ ID NO: 5) [PC90]
recovery rates of phage from tumor tissues compared with normal organs [1]: much higher
targeting of tumor xenografts and normal organs ([1]; i.v., tumor xenografts vs brain): bound to cancer cells in the tumor xenografts but not to normal organs
patients determined as carrying breast cancer cells [2]: 18 out of the 20

EATNSHGSRTMG (SEQ ID NO: 2) [PC65]
recovery rates of phage from tumor tissues compared with normal organs [1]: much higher

TVSWSTTGRIPL (SEQ ID NO: 3) [PC73]
recovery rates of phage from tumor tissues compared with normal organs [1]: much higher

RLLDTNRPLLPY (SEQ ID NO:6) [control peptide, synthetic control peptide, see Lee et al., Cancer Res. 64:8002-8008, 2004, reference compound]
inhibition of PC90 binding to the tumor tissues (words) [3]: did not exhibit any inhibitory activity
competition against PC90 for binding to cancer cells in tissue samples [4]: not

SMDPFLFQLLQL (SEQ ID NO:5) [SP90, synthetic peptide …]
inhibition of PC90 binding to the tumor tissues [3]: 97%
inhibition of PC90 binding to the tumor tissues (words) [3]: significantly inhibited
competition against PC90 for binding to cancer cells in tissue samples [4]: competed against PC90 for binding to the cancer cells
